Measured values from patent publication US6552080B1, “Fungicidal compounds having a fluorovinyl-or fluoropropenyl-oxyphenyloxime moiety and process for the preparation thereof” (Korea Research Institute of Chemical Technology, priority 1999, dated 2003).
Where two headings read alike, the source gives them in different places.

Columns and labels:
Phytophthora infestans = type: in vivo; settings: for TLB (Fungicidal Activities, C.V.): Tomato Late Blight
Rhizoctonia solani AG-1 = assay: Fungicidal activity against Rice Sheath Blight (RSB) disease; settings: for RSB (Fungicidal Activities, C.V.): Rice Sheath Blight
Description: To examine fungicidal activity of the compounds of the present invention, each of the compounds listed in Table 3 and 4 was dissolved in 10% acetone to a concentration of 250 ppm, and Tween-20 was added thereto to a concentration of 250 or 500 ppm. 50 ml of the resulting solution was sprayed on leaves of a host plant. The plant was kept at room temperature for 24 hours to let the solvent evaporate, and then, a pathogenic fungus was inoculated thereonto. The plant was held in a humidity chamber for 24 hours, transferred to an plant growth room kept at 20 to 27° C. and a relative humidity of 60 to 80% and kept to induce disease. […] This procedure was repeated twice for each test. 10% Acetone solution containing 250 ppm of Tween-20 was used as a control.
The fungicidal activity of the compound of the present invention is repressed by a control value (C.V.) calculated as; [formula]
Rhizoctonia solani AG-1 was cultured on a PDA medium (potato 200 g, dextrose 20 g, agar 20 g and distilled water 1 ? for 3 days and the agar disc(diameter 0.6 cm) was inoculated and cultured on sterilized wheat bran medium in a 1 L bottle at 26 to 28° C. for 7 days. A mycelial mass was ground using a homogenizer, inoculated uniformly on soil of a pot wherein a Nakdong rice plant having 2 or 3 leaves and an height of 5 cm grew, and kept in humidity polyvinyl chamber for 5 days to induce RSB. L.A. on a leaf sheath was measured to calculate an C.V.

Botrytis cinerae = assay: Fungicidal activity against Cucumber Gray Mold Rot (CGM) disease; type: in vivo; settings: for CGM (Fungicidal Activities, C.V.): Cucumber Gray Mold Rot, concentration 50 ppm
Description: Botrytis cinerae, which was isolated from cucumber infected thereby, was inoculated on a PDA agar medium and cultured under a 12L/12D cycle at 25° C. for 15 days to form spore. The spores were scraped, filtered through a gauze and then suspended in potato dextrose liquid medium at a concentration of 1×10^6 spore/ml. The spore suspension was sprayed on a cucumber plant having one leaf. The cucumber plant was held in a humidified room at 20° C. for 3 days. L.A. on a leaf was measured to calculate an C.V.

Erysiphae graminis = assay: Fungicidal activity against Barley Powdery Mildew (BPM) disease; type: in vivo; settings: for BPM (Fungicidal Activities, C.V.): Barley Powdery Mildew
[1] = tested on: Pyricularia oryzae Carvara KA301; type: in vivo; settings: for RCV (Fungicidal Activities, C.V.): Rice Blast
Puccinia recondita = assay: Fungicidal activity against Wheat Leaf Rust (WLR) disease; type: in vivo; settings: for WLR (Fungicidal Activities, C.V.): Wheat Leaf Rust

| SMILES | TLB (Fungicidal Activities, C.V.) (Phytophthora infestans; concentration 50 ppm) [%] | RSB (Fungicidal Activities, C.V.) (Rhizoctonia solani AG-1; concentration 50 ppm) [%] | CGM (Fungicidal Activities, C.V.) (Botrytis cinerae) [%] | BPM (Fungicidal Activities, C.V.) (Erysiphae graminis; concentration 2 ppm) [%] | BPM (Fungicidal Activities, C.V.) (Erysiphae graminis; concentration 10 ppm) [%] | BPM (Fungicidal Activities, C.V.) (Erysiphae graminis; concentration 50 ppm) [%] | RCV (Fungicidal Activities, C.V.) ([1]; concentration 2 ppm) [%] | RCV (Fungicidal Activities, C.V.) ([1]; concentration 10 ppm) [%] | RCV (Fungicidal Activities, C.V.) ([1]; concentration 50 ppm) [%] | WLR (Fungicidal Activities, C.V.) (Puccinia recondita; concentration 2 ppm) [%] | WLR (Fungicidal Activities, C.V.) (Puccinia recondita; concentration 10 ppm) [%] | WLR (Fungicidal Activities, C.V.) (Puccinia recondita; concentration 50 ppm) [%] | also measured |
| --- | --- | --- | --- | --- | --- | --- | --- | --- | --- | --- | --- | --- | --- |
| COC=C(C(=O)OC)c1ccccc1CON=Cc1cccc(OC(F)=Cc2cccc(F)c2)c1 [Compound 11] | 85 | 40 | 17 | 98 | 99 | 100 | 33 | 86 | 100 | 97 | 100 | 100 |  |
| CON=C(C(=O)OC)c1ccccc1CON=C(c1cccc(OC(F)=C(c2ccccc2)C(F)(F)F)c1)C(F)(F)F [Compound 221] |  |  |  |  |  |  |  |  |  |  |  |  | Fungicidal Activities TLB (C.V.) (Phytophthora infestans; 50 ppm): 0%; Fungicidal Activities RSB (C.V.) (Rhizoctonia solani AG-1; 50 ppm): 30%; Fungicidal Activities CGM (C.V.) (Botrytis cinerae; 50 ppm): 0%; Fungicidal Activities BPM (C.V.) (Erysiphae graminis; 10 ppm): 96%; Fungicidal Activities BPM (C.V.) (Erysiphae graminis; 50 ppm): 100%; Fungicidal Activities RCV (C.V.) ([1]; 50 ppm): 41%; Fungicidal Activities WLR (C.V.) (Puccinia recondita; 10 ppm): 91%; Fungicidal Activities WLR (C.V.) (Puccinia recondita; 50 ppm): 100% |
| COC=C(C(=O)OC)c1ccccc1CON=C(C)c1cccc(OC(F)=C(c2cccc(C)c2)C(F)(F)F)c1 [Compound 151] | 12 | 95 | 24 | 98 | 100 | 100 | 93 | 99 | 100 | 86 | 95 | 100 | RSB (Fungicidal Activities, C.V.) (Rhizoctonia solani AG-1; concentration 2 ppm): 35%; RSB (Fungicidal Activities, C.V.) (Rhizoctonia solani AG-1; concentration 10 ppm): 55% |
| CCOc1ccc(C=C(F)Oc2cccc(C=NOCc3ccccc3C(=NOC)C(=O)NC)c2)cc1 [Compound 36] | 0 | 0 | 0 | 0 |  | 100 | 88 |  | 100 | 0 |  | 93 |  |
| COC=C(C(=O)OC)c1ccccc1CON=Cc1cccc(OC(F)=C(c2ccc(Br)cc2)C(F)(F)F)c1 [Compound 118] | 0 | 30 | 36 | 88 | 96 | 100 |  |  | 33 | 91 | 98 | 100 |  |
| COC=C(C(=O)OC)c1ccccc1CON=C(C)c1cccc(OC(F)=Cc2ccc3ccccc3c2)c1 [Compound 56] | 57 | 70 | 5 | 100 | 100 | 100 | 25 | 80 | 95 | 95 | 100 | 100 |  |
| CON=C(C(=O)OC)c1ccccc1CON=C(C)c1cccc(OC(F)=Cc2ccc(Cl)cc2)c1 [Compound 76] | 0 | 100 | 62 | 100 |  | 100 | 100 |  | 100 | 100 |  | 100 | TLB (Fungicidal Activities, C.V.) (Phytophthora infestans; concentration 2 ppm): 0%; RSB (Fungicidal Activities, C.V.) (Rhizoctonia solani AG-1; concentration 2 ppm): 35% |
| CCOc1ccc(C=C(F)Oc2cccc(C(C)=NOCc3ccccc3C(=NOC)C(=O)NC)c2)cc1 [Compound 81] | 64 | 100 | 83 | 100 |  | 100 | 100 |  | 100 | 99 |  | 100 | TLB (Fungicidal Activities, C.V.) (Phytophthora infestans; concentration 2 ppm): 12%; RSB (Fungicidal Activities, C.V.) (Rhizoctonia solani AG-1; concentration 2 ppm): 30% |
| COC=C(C(=O)OC)c1ccccc1CON=C(c1cccc(OC(F)=Cc2ccc3c(c2)OCO3)c1)C(F)(F)F [Compound 94] | 68 | 60 | 54 | 100 | 100 | 100 | 99 | 100 | 100 | 93 | 96 | 100 |  |
| CNC(=O)C(=NOC)c1ccccc1CON=Cc1cccc(OC(F)=Cc2ccc3c(c2)OCO3)c1 [Compound 39] | 83 | 58 | 0 | 0 |  | 100 | 93 |  | 100 | 0 |  | 100 |  |
| CCc1ccc(C=C(F)Oc2cccc(C(C)=NOCc3ccccc3C(=NOC)C(=O)NC)c2)cc1 [Compound 79] | 82 | 65 | 80 | 100 |  | 100 | 99 |  | 100 | 98 |  | 100 | TLB (Fungicidal Activities, C.V.) (Phytophthora infestans; concentration 2 ppm): 43%; RSB (Fungicidal Activities, C.V.) (Rhizoctonia solani AG-1; concentration 2 ppm): 35% |
| CNC(=O)C(=COC)c1ccccc1CON=C(C)c1cccc(OC(F)=Cc2cc(C)cc(C)c2)c1 [Compound 58] | 0 | 23 | 8 |  |  | 98 |  |  | 100 |  |  | 98 |  |
| CCc1ccc(C(=C(F)Oc2cccc(C(C)=NOCc3ccccc3C(=COC)C(=O)OC)c2)C(F)(F)F)cc1 [Compound 155] | 6 | 60 | 52 | 95 | 99 | 100 |  |  | 80 | 83 | 99 | 100 |  |
| COC=C(C(=O)OC)c1ccccc1CON=Cc1cccc(OC(F)=Cc2ccc(OC)cc2)c1 [Compound 9] | 12 | 50 | 53 | 55 | 99 | 100 | 8 | 83 | 100 | 95 | 98 | 100 |  |
| CON=C(C(=O)OC)c1ccccc1CON=Cc1cccc(OC(F)=C(c2ccccc2)C(F)(F)F)c1 [Compound 131] | 4 | 55 | 42 | 76 |  | 100 | 43 |  | 80 | 98 |  | 100 |  |
| CNC(=O)C(=NOC)c1ccccc1CON=C(C)c1cccc(OC(F)=Cc2cccc(OC)c2)c1 [Compound 80] | 72 | 100 | 77 | 100 |  | 100 | 100 |  | 100 | 96 |  | 100 | TLB (Fungicidal Activities, C.V.) (Phytophthora infestans; concentration 2 ppm): 12%; RSB (Fungicidal Activities, C.V.) (Rhizoctonia solani AG-1; concentration 2 ppm): 45% |
| COC=C(C(=O)OC)c1ccccc1CON=C(C)c1cccc(OC(F)=Cc2ccc(Cl)c(C)c2)c1 [Compound 52] | 42 | 65 | 52 |  | 100 | 100 |  | 80 | 97 |  | 96 | 100 |  |
